From US20100159039A1, “ANTIVIRAL AGENTS CONTAINING A FERMENTATION PRODUCT OF GARLIC BY LACTIC ACID BACTERIA” (Liisna Inc., priority 2008, published 2010) come the findings set out here.

Series [1] has as its system influenza virus Type H1N1 (A/Taiwan/1/86). The series is described as follows: CPE inhibition assay in MDCK cells, influenza A/H1N1. The class given is cell-based. To be noted: for EC50: 72 h, MDCK cells, 100 CCID50, three days, read-out: Antiviral activity (EC50) Taiwan A/H1N1.
The test system of series [2] is influenza virus Type H3N2 (A/Seoul/11/88). As to the kind of experiment: CPE inhibition assay in MDCK cells, influenza A/H3N2. The class given is cell-based. To be noted: for EC50: 72 h, MDCK cells, 100 CCID50, three days, read-out: Antiviral activity (EC50) Seoul A/H3N2.
Series [3] deals with influenza virus Type B (B/Panama/45/90). The series is described as follows: CPE inhibition assay in MDCK cells, influenza B. Format: cell-based. The note with it: for EC50: Influenza B virus, MDCK, 72 h, read-out: Antiviral activity (EC50) Panama B.
Series [4] is described as follows: in vitro. To be noted: dog.
Series [5] relates to MDCK (Madin-Darby canine kidney) cells.

Converted amounts (≈) assume the structure as drawn. Like-named read-outs stand apart in the source and are kept apart here.

In the case of `NC(=O)c1ncn([C@@H]2O[C@H](CO)[C@@H](O)[C@H]2O)n1` [Ribavirin, ribavirin], in series [1], the “Selectivity index (SI, CC50/EC50) Taiwan A/H1N1” value is >15.3 and the EC50 is 6.54 µg/mL (≈ 26.8 µM). Also, in series [2], the “Selectivity index (SI, CC50/EC50) Seoul A/H3N2” value is listed as >34.7 and the EC50 is 2.88 µg/mL (≈ 11.8 µM). For the same compound, in series [3], the “Selectivity index (SI, CC50/EC50) Panama B” value is >43.7 and the EC50 is 2.29 µg/mL (≈ 9.38 µM). In addition, in series [4], the CC50 is > 100 µg/mL.

As to `NC12CC3CC(CC(C3)C1)C2` [Amantadine, amantadine], the EC50 was > 100 µg/mL in series [1], 0.49 µg/mL (≈ 3.24 µM) in series [2] and > 100 µg/mL in series [3]. Also, the “Selectivity index (SI, CC50/EC50) Seoul A/H3N2” value in series [2] is >204.1. The CC50 in series [4] was > 100 µg/mL.

Turning to `CC(O)C(=O)O` (centres unmarked) [Lactic acid, lactic acid], the “Selectivity index (SI, CC50/EC50) Taiwan A/H1N1” value in series [1] (CC50/EC50) is reported as <1.00. In addition, the “Selectivity index (SI, CC50/EC50) Seoul A/H3N2” value in series [2] (CC50/EC50) was <1.00. The “Selectivity index (SI, CC50/EC50) Panama B” value in series [3] is recorded as <1.00. The “Toxicity CC50 (50% cytotoxic concentration)” value in series [5] came out at 0.014.

Regarding `CCOC(=O)C1=C[C@@H](OC(CC)CC)[C@H](NC(C)=O)[C@@H](N)C1` [Oseltamivir, oseltamivir], the values for the EC50 in series [1], in series [2] and in series [3] were 16.4 µg/mL (≈ 52.3 µM), 0.49 µg/mL (≈ 1.57 µM) and 10.1 µg/mL (≈ 32.5 µM), respectively. Further, the “Selectivity index (SI, CC50/EC50) Taiwan A/H1N1” value in series [1] (CC50/EC50) is recorded as >6.1. The “Selectivity index (SI, CC50/EC50) Seoul A/H3N2” value in series [2] (CC50/EC50) is >202.4. Moreover, in series [3], the “Selectivity index (SI, CC50/EC50) Panama B” value is given as >9.9. Moreover, the CC50 in series [4] is > 100 µg/mL.
